“And” between values parts separate entries of the source, which are not always exact repeats. Identical values can stand only once.
Columns and labels:
Sigma σ1 = Sigma σ1 (Homo sapiens, UniProt Q99720); test: Radioligand binding assay, Sigma σ1
Excerpt: (§1) . Table 1 provides data produced via a receptor binding assay and IC50 and Ki determination. […] In addition, the compound of formula (Ia) has a potent DAT inhibition, which is indicative of dopaminergic uptake inhibition and increased DA activity. In addition to the effect on SERT and DAT, the compound of formula (Ia) inhibited the transporter of Norepinephrine (NET), and several neurotransmitter's receptors like alpha2A and alpha2C receptors, alpha 1A and alphal C, 5HT2A and 5HT2C, signal histamine2 and dopamine D1. This specific profile is in line with the data on antidepressant, anxiolytic and moderate neuro-stimulation activity observed in the animal model studies.
(§2) With regard to the data provided in Table 1, the biochemical assay results are presented as the percent inhibition of specific binding or activity throughout the report. For primary assays, only the lowest concentration with a significant response judged by the assays’ criteria, is shown in this summary. […] Unless otherwise requested, primary screening in duplicate with quantitative data (e.g., IC50±SEM, Ki±SEM and nH) are shown.

[1] = molecular target: Transporter, Norepinephrine (NET) (Homo sapiens, UniProt P23975); test: Radioligand binding assay, Norepinephrine transporter
Transporter, Norepinephrine (NET), sequence (P23975 whole entry): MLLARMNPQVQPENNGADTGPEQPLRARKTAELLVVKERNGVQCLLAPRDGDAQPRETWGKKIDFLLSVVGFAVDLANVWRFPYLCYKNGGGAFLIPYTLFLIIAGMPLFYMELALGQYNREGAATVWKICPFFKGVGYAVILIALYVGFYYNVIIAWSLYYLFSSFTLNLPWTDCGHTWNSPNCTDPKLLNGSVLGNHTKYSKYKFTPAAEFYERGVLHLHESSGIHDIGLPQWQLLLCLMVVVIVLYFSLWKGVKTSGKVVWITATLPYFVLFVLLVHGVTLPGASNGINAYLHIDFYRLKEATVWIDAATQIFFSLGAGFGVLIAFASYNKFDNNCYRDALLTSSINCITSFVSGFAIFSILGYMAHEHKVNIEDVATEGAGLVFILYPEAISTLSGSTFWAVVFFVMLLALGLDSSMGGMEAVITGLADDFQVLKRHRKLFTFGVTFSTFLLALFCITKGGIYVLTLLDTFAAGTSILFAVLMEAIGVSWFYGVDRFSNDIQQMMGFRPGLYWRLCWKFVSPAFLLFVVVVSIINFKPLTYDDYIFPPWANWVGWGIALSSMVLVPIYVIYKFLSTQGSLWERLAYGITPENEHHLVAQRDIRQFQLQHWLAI
Excerpt: as §1, §2

[2] = molecular target: Serotonin (5-Hydroxytryptamine) 5-HT6 (Homo sapiens, UniProt P50406); test: Radioligand binding assay, 5-HT6
Serotonin (5-Hydroxytryptamine) 5-HT6, sequence (P50406 whole entry): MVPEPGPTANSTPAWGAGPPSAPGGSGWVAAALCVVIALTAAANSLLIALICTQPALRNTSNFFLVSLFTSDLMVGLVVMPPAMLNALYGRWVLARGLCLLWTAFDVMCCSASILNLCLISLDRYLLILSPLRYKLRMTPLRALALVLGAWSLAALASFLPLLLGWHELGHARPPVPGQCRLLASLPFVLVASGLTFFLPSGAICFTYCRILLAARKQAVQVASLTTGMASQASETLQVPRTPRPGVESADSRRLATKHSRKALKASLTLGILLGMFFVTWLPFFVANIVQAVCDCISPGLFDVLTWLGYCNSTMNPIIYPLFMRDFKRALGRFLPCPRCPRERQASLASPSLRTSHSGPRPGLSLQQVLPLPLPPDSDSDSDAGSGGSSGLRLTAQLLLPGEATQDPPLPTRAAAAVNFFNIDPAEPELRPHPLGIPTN
Excerpt: as §1, §2

Histamine H2 = Histamine H2 (Homo sapiens, UniProt P25021); test: Radioligand binding assay, Histamine H2
Histamine H2, sequence (P25021 whole entry): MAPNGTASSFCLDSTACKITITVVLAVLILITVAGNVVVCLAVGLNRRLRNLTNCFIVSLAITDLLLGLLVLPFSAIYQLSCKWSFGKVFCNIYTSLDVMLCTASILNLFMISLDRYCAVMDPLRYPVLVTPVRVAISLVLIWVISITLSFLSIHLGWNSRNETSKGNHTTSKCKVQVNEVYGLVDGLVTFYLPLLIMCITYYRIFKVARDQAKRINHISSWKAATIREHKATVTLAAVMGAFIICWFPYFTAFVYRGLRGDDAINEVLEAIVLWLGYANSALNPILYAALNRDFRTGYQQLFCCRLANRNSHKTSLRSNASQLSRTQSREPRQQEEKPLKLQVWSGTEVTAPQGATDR
Excerpt: as §1, §2

BALBc male mice = test: Hot plate test; type: in vivo; conditions: 10 mg/kg orally (sertraline equimolar)
Excerpt: The hot-plate test is widely used to measure pain sensation. The latency in response to heat of mice and rats feet is based on the method described by Eddy et al., Synthetic analgesics. II. […] The method is based on placing an animal on heated (52-56 C) surface and measuring the time to response (raising paw, licking of the paw, jumping or running.
The animals were followed for 6 hr.

Sigma σ1, sequence (Q99720 whole entry): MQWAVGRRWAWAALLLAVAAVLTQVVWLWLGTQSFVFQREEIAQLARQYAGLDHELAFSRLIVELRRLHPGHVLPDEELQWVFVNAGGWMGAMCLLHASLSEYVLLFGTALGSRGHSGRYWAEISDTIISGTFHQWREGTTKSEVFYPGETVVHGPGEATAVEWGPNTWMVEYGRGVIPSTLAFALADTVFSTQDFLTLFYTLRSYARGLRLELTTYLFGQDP

SMILES: CN[C@H]1CC[C@@H](c2ccc(Cl)c(Cl)c2)c2ccc(C#CCCCO)cc21 [compound Ia, (1S-cis)-4-(3,4-dichlorophenyl)-7-(5-hydroxy-1-pentyn-1-yl)-1,2,3,4-tetrahydro-N-methyl-1-naphthalenamine hydroiodide]
- IC50 (Sigma σ1): 0.837 µM
- nH (Sigma σ1): 0.627
- inhibition at 3 µM (Sigma σ1; 3 μM): 69%
- Ki (Sigma σ1; read-out: K1): 0.352 µM
- IC50 [1]: 0.623 µM
- nH [1]: 0.977
- inhibition at 1 µM ([1]; 1 μM): 62%
- Ki ([1]; read-out: K1): 0.618 µM
- IC50 [2]: 2.6 µM
- nH [2]: 1.16
- inhibition at 3 µM ([2]; 3 μM): 51%
- Ki ([2]; read-out: K1): 1.21 µM
- IC50 (Histamine H2): 1.56 µM
- nH (Histamine H2): 1.37
- inhibition at 3 µM (Histamine H2; 3 μM): 70%
- Ki (Histamine H2; read-out: K1): 1.28 µM
- time after drug administration with significant effect on reaction to heating (BALBc male mice; followed for 6 hr, hydroiodide): 120 min and 240 min
- latency to heat sensation (BALBc male mice; vs vehicle treated control): significantly increase

Source: patent publication US20100130549A1, “PSYCHOTROPIC COMPOUNDS, COMPOSITIONS AND METHODS OF USE” (priority 2007, published 2010)
